In ChEMBL document CHEMBL3865816, “Design, synthesis and biological evaluation of novel azaspiro analogs of linezolid as antibacterial and antitubercular agents” (Eur J Med Chem, 2016):
≈ marks a conversion by molar mass, not a printed value.

Assays:
Assay type in all cases: functional
[1] = tested on: Mycobacterium tuberculosis; test: Antitubercular activity against dormant stage Mycobacterium tuberculosis H37Ra at 10 ug/ml measured after 12 days by XTT assay; settings: 288 h
Staphylococcus aureus [2] = test: Antibacterial activity against Staphylococcus aureus NCIM 2079 measured after 12 hrs by spectrophotometric method; settings: NCIM 2079, 12 h
[3] = tested on: Mycobacterium tuberculosis; test: Antitubercular activity against dormant stage Mycobacterium tuberculosis H37Ra at 3 ug/ml measured after 12 days by XTT assay; settings: 288 h
Staphylococcus aureus [4] = test: Antibacterial activity against Staphylococcus aureus NCIM 2079 at 3 ug/ml measured after 12 hrs by spectrophotometric method; settings: NCIM 2079, 12 h
Pseudomonas aeruginosa [5] = test: Antibacterial activity against Pseudomonas aeruginosa NCIM 2036 measured after 8 hrs by spectrophotometric method; settings: NCIM 2036, 8 h
Pseudomonas aeruginosa [6] = test: Antibacterial activity against Pseudomonas aeruginosa NCIM 2036 at 10 ug/ml measured after 8 hrs by spectrophotometric method; settings: NCIM 2036, 8 h
Bacillus subtilis [7] = test: Antibacterial activity against Bacillus subtilis NCIM 2010 measured after 12 hrs by spectrophotometric method; settings: NCIM 2010, 12 h
Pseudomonas aeruginosa [8] = test: Antibacterial activity against Pseudomonas aeruginosa NCIM 2036 at 30 ug/ml measured after 8 hrs by spectrophotometric method; settings: NCIM 2036, 8 h
Pseudomonas aeruginosa [9] = test: Antibacterial activity against Pseudomonas aeruginosa NCIM 2036 at 3 ug/ml measured after 8 hrs by spectrophotometric method; settings: NCIM 2036, 8 h
Escherichia coli [10] = test: Antibacterial activity against Escherichia coli NCIM 2688 at 10 ug/ml measured after 8 hrs by spectrophotometric method; settings: NCIM 2688, 8 h
Escherichia coli [11] = test: Antibacterial activity against Escherichia coli NCIM 2688 measured after 8 hrs by spectrophotometric method; settings: NCIM 2688, 8 h
[12] = tested on: Mycobacterium tuberculosis; test: Antitubercular activity against dormant stage Mycobacterium tuberculosis H37Ra at 30 ug/ml measured after 12 days by XTT assay; settings: 288 h
Bacillus subtilis [13] = test: Antibacterial activity against Bacillus subtilis NCIM 2010 at 10 ug/ml measured after 12 hrs by spectrophotometric method; settings: NCIM 2010, 12 h
Bacillus subtilis [14] = test: Antibacterial activity against Bacillus subtilis NCIM 2010 at 30 ug/ml measured after 12 hrs by spectrophotometric method; settings: NCIM 2010, 12 h
Staphylococcus aureus [15] = test: Antibacterial activity against Staphylococcus aureus NCIM 2079 at 10 ug/ml measured after 12 hrs by spectrophotometric method; settings: NCIM 2079, 12 h
[16] = tested on: Mycobacterium tuberculosis; test: Antitubercular activity against dormant stage Mycobacterium tuberculosis H37Ra measured after 12 days by XTT assay; settings: 288 h
Escherichia coli [17] = test: Antibacterial activity against Escherichia coli NCIM 2688 at 30 ug/ml measured after 8 hrs by spectrophotometric method; settings: NCIM 2688, 8 h
Staphylococcus aureus [18] = test: Antibacterial activity against Staphylococcus aureus NCIM 2079 at 30 ug/ml measured after 12 hrs by spectrophotometric method; settings: NCIM 2079, 12 h
Escherichia coli [19] = test: Antibacterial activity against Escherichia coli NCIM 2688 at 3 ug/ml measured after 8 hrs by spectrophotometric method; settings: NCIM 2688, 8 h
Bacillus subtilis [20] = test: Antibacterial activity against Bacillus subtilis NCIM 2010 at 3 ug/ml measured after 12 hrs by spectrophotometric method; settings: NCIM 2010, 12 h

Compound | inhibition at 10 µg/mL [1] [%] | IC50 (Staphylococcus aureus [2]) [µg/mL] | MIC (Staphylococcus aureus [2]) [µg/mL] | inhibition at 3 µg/mL [3] [%] | inhibition at 3 µg/mL (Staphylococcus aureus [4]) [%] | IC50 (Pseudomonas aeruginosa [5]) [µg/mL] | MIC (Pseudomonas aeruginosa [5]) [µg/mL] | inhibition at 10 µg/mL (Pseudomonas aeruginosa [6]) [%] | IC50 (Bacillus subtilis [7]) [µg/mL] | MIC (Bacillus subtilis [7]) [µg/mL] | inhibition at 30 µg/mL (Pseudomonas aeruginosa [8]) [%] | inhibition at 3 µg/mL (Pseudomonas aeruginosa [9]) [%] | inhibition at 10 µg/mL (Escherichia coli [10]) [%] | IC50 (Escherichia coli [11]) [µg/mL] | MIC (Escherichia coli [11]) [µg/mL] | inhibition at 30 µg/mL [12] [%] | inhibition at 10 µg/mL (Bacillus subtilis [13]) [%] | inhibition at 30 µg/mL (Bacillus subtilis [14]) [%] | inhibition at 10 µg/mL (Staphylococcus aureus [15]) [%] | IC50 [16] [µg/mL] | further results
CC(=O)N1CCC2(C1)CN(c1ccc(N3CCOCC3)c(F)c1)C(=O)O2 (stereo not given) | -8.05 | > 100 | > 100 | 19.7 | 45.2 | > 100 | > 100 | 48.4 | > 100 | > 100 | 56.2 | 42.8 | 42 | > 100 | > 100 | 12 | 32.2 | 42.2 | 50.2 | > 100 | MIC [16]: > 100 µg/mL; inhibition at 30 µg/mL (Escherichia coli [17]): 46%; inhibition at 30 µg/mL (Staphylococcus aureus [18]): 53.6%; inhibition at 3 µg/mL (Escherichia coli [19]): 36.2%; inhibition at 3 µg/mL (Bacillus subtilis [20]): 23.9%
O=C1OC2(CCNC2)CN1c1ccc(N2CCOCC2)c(F)c1 (stereo not given) | 17 | > 100 | > 100 | 13.6 | 36.2 | > 100 | > 100 | 32.2 | > 100 | > 100 | 36.2 | 22.6 | 96.2 | 4.44 (≈ 13.8 µM) | 0.554 (≈ 1.72 µM) | 49.3 | 21.5 | 32.2 | 46.8 | > 100 | MIC [16]: > 100 µg/mL; inhibition at 30 µg/mL (Escherichia coli [17]): 99.8%; inhibition at 30 µg/mL (Staphylococcus aureus [18]): 50.2%; inhibition at 3 µg/mL (Escherichia coli [19]): 86.4%; inhibition at 3 µg/mL (Bacillus subtilis [20]): 8.05%
O=C(NC[C@H]1CN(c2ccc(N3CC4(COC4)C3)c(F)c2)C(=O)O1)c1ccc(C(F)(F)F)cc1 | -4.6 | 0.67 (≈ 1.4 µM) | 22.3 (≈ 46.5 µM) | -10.1 | 78.4 | 1.19 (≈ 2.48 µM) | 18.1 (≈ 37.8 µM) | 84.9 | > 100 | > 100 | 98.3 | 74.9 | 59.7 | > 100 | > 100 | -20.7 | 78.8 | 95.8 | 84.4 | > 100 | MIC [16]: > 100 µg/mL; inhibition at 30 µg/mL (Escherichia coli [17]): 74.1%; inhibition at 30 µg/mL (Staphylococcus aureus [18]): 92.2%; inhibition at 3 µg/mL (Escherichia coli [19]): 33.8%; inhibition at 3 µg/mL (Bacillus subtilis [20]): 65.4%
O=C1O[C@@H](CNC(=S)Nc2ccc(Cl)cc2)CN1c1ccc(N2CC3(COC3)C2)c(F)c1 | 15.7 | > 100 | > 100 | 14.8 | 18.8 | > 100 | > 100 | 49.4 | > 100 | > 100 | 71.2 | 34 | 42.5 | > 100 | > 100 | -0.48 | 45.6 | 62.6 | 37.9 | > 100 | MIC [16]: > 100 µg/mL; inhibition at 30 µg/mL (Escherichia coli [17]): 69.9%; inhibition at 30 µg/mL (Staphylococcus aureus [18]): 47.5%; inhibition at 3 µg/mL (Escherichia coli [19]): 47.7%; inhibition at 3 µg/mL (Bacillus subtilis [20]): 24.1%
O=C1O[C@@H](CNC(=O)C23CC4CC(CC(C4)C2)C3)CN1c1ccc(N2CC3(COC3)C2)c(F)c1 | 4.41 | > 100 | > 100 | 9.46 | 54.9 | > 100 | > 100 | 39.2 | > 100 | > 100 | 40.7 | 49.6 | 43.3 | > 100 | > 100 | 22.1 | 62 | 69.8 | 55.5 | > 100 | MIC [16]: > 100 µg/mL; inhibition at 30 µg/mL (Escherichia coli [17]): 60.1%; inhibition at 30 µg/mL (Staphylococcus aureus [18]): 71.1%; inhibition at 3 µg/mL (Escherichia coli [19]): 36.8%; inhibition at 3 µg/mL (Bacillus subtilis [20]): 51.3%
O=C1O[C@@H](CNS(=O)(=O)c2ccc(Cl)s2)CN1c1ccc(N2CC3(COC3)C2)c(F)c1 | -6.64 | 0.46 (≈ 0.943 µM) | 1.31 (≈ 2.68 µM) | -14.5 | 94.3 | 1.13 (≈ 2.32 µM) | 3.52 (≈ 7.21 µM) | 97.1 | 0.64 (≈ 1.31 µM) | 2.2 (≈ 4.51 µM) | 99 | 86.6 | 87.4 | 0.89 (≈ 1.82 µM) | 15.4 (≈ 31.6 µM) | 74.6 | 97.2 | 99.2 | 96.5 | > 100 | MIC [16]: > 100 µg/mL; inhibition at 30 µg/mL (Escherichia coli [17]): 97.8%; inhibition at 30 µg/mL (Staphylococcus aureus [18]): 96.9%; inhibition at 3 µg/mL (Escherichia coli [19]): 80.3%; inhibition at 3 µg/mL (Bacillus subtilis [20]): 90%
O=C1O[C@@H](CNC(=S)Nc2ccc([N+](=O)[O-])cc2)CN1c1ccc(N2CC3(COC3)C2)c(F)c1 | 4.66 | > 100 | > 100 | 9.41 | 66.7 | > 100 | > 100 | 41.8 | > 100 | > 100 | 73.6 | 9.11 | 61 | > 100 | > 100 | -13.5 | 76.2 | 80.4 | 74.5 | > 100 | MIC [16]: > 100 µg/mL; inhibition at 30 µg/mL (Escherichia coli [17]): 65.5%; inhibition at 30 µg/mL (Staphylococcus aureus [18]): 81%; inhibition at 3 µg/mL (Escherichia coli [19]): 51.8%; inhibition at 3 µg/mL (Bacillus subtilis [20]): 62.7%
O=C1O[C@@H](CNS(=O)(=O)c2cc(Cl)cc(Cl)c2)CN1c1ccc(N2CC3(COC3)C2)c(F)c1 | -5.84 | > 100 | > 100 | 8.02 | 55.1 | > 100 | > 100 | 67.2 | > 100 | > 100 | 86.6 | 42.2 | 23.5 | > 100 | > 100 | 23.2 | 56.1 | 66.6 | 50.6 | > 100 | MIC [16]: > 100 µg/mL; inhibition at 30 µg/mL (Escherichia coli [17]): 25.4%; inhibition at 30 µg/mL (Staphylococcus aureus [18]): 74.2%; inhibition at 3 µg/mL (Escherichia coli [19]): 36.8%; inhibition at 3 µg/mL (Bacillus subtilis [20]): 51%
O=C1OC2(CCN(Cc3ccccc3)C2)CN1c1ccc(N2CCOCC2)c(F)c1 (stereo not given) | 7.06 | > 100 | > 100 | 18.1 | 30.5 | > 100 | > 100 | 32.7 | > 100 | > 100 | 50.1 | 35.9 | 23.7 | > 100 | > 100 | 20.8 | 17.4 | 14.7 | 22.9 | > 100 | MIC [16]: > 100 µg/mL; inhibition at 30 µg/mL (Escherichia coli [17]): 23.9%; inhibition at 30 µg/mL (Staphylococcus aureus [18]): 23.1%; inhibition at 3 µg/mL (Escherichia coli [19]): 31.2%; inhibition at 3 µg/mL (Bacillus subtilis [20]): 24.5%
O=C(NC[C@H]1CN(c2ccc(N3CC4(COC4)C3)c(F)c2)C(=O)O1)Nc1ccc(Cl)cc1 | 25.6 | > 100 | > 100 | 6.78 | 47.4 | > 100 | > 100 | 33.1 | > 100 | > 100 | 62 | 12.4 | 31.9 | > 100 | > 100 | 30.2 | 63.6 | 65 | 57.3 | > 100 | MIC [16]: > 100 µg/mL; inhibition at 30 µg/mL (Escherichia coli [17]): 59.1%; inhibition at 30 µg/mL (Staphylococcus aureus [18]): 62.1%; inhibition at 3 µg/mL (Escherichia coli [19]): 7.39%; inhibition at 3 µg/mL (Bacillus subtilis [20]): 59.6%
